For this assay, the target named is AeKir1 (Aedes aegypti, UniProt L0EQS9). Description: Tl+ flux assay in T-REx-HEK293-AeKir1 cells. The class given is cell-based. The procedure: Tl^+ flux assays were performed essentially as described previously, [18], [19]. Briefly, stably transfected T-Rex-HEK-293 cells expressing AeKir1 channels were cultured overnight in 384-well plates (20,000 cells/20 µL/well black-walled, clear-bottomed BD PureCoat amine-coated plates (BD, Bedford, MA) with a plating media containing DMEM, 10% dialyzed FBS and 1 µg/mL tetracycline. The next day, the cell culture medium was replaced with a dye-loading solution containing assay buffer (Hanks Balanced Salt Solution with 20 mM HEPES, pH 7.3), 0.01% (w/v) Pluronic F-127 (Life Technologies, Carlsbad, CA), and 1.2 µM of the thallium-sensitive dye Thallos-AM (TEFlabs, Austin, TX). Following 1 hr incubation at room temperature, the dye-loading solution was washed from the plates and replaced with 20 µL/well of assay buffer. The plates were transferred to a Hamamatsu Functional Drug Screening System 6000 (FDSS6000; Hamamatsu, Hamamatsu (or Bridgewater, NJ), Japan) where 20 µL/well of test compounds in assay buffer (as prepared below) were added and allowed to incubate with the cells for 20 min. After the incubation period, a baseline recording was collected at 1 Hz for 10 s (excitation 470±20 nm, emission 540±30 nm) followed by a Tl^+ stimulus buffer addition (10 µL/well) and data collection for an additional 4 min. The Tl^+ stimulus buffer contains in (mM) 125 NaHCO3, 1.8 CaSO4, 1 MgSO4, 5 glucose, 12 Tl2SO4, 10 HEPES, pH 7.4. For Tl^+ flux assays on the mammalian channels Kir2.x, Kir4.1 and Kir6.2/SUR1 expressing cells, the Tl^+ stimulus buffer contained 1.8 mM Tl2SO4. Also, Tl^+ flux assays on Kir3.1/3.2/mGlu8 expressing cell, required addition of an EC80 concentration of glutamate (Sigma-Aldrich, St. Louis, MO) with the Tl^+ stimulus buffer. The test compounds were transferred to daughter polypropylene 384-well plates (Greiner Bio-One, Monroe, NC) using an Echo555 liquid handler (Labcyte, Sunnyvale, CA), and then diluted into assay buffer to generate a 2X stock in 0.6% DMSO (0.3% final). For Tl^+ flux assays on Kir6.2/SUR1 expressing cells, test compounds were diluted in assay buffer containing diazoxide (250 µM final) to induce channel activation. Concentration-response curves (CRCs) were generated by screening compounds at 3-fold dilution series in 4-point (1 µM–30 µM) or 11-point (1 nM–30 µM) CRCs. Tl^+ flux data were analyzed as previously described, [21], [22] using a combination of Excel (Microsoft Corp, Redmond, WA) with XLfit add-in (IDBS, Guildford, Surrey, UK) and OriginPro (OriginLab, Northampton, MA) software. Raw data were opened in Excel and each data point in a given trace was divided by the first data point from that trace (static ratio) followed by subtraction of data points from control traces generated in the presence of vehicle controls. The slope of the fluorescence increase beginning 5 s after Tl^+ addition and ending 15 s after Tl^+ addition was calculated. To compare the effect of DMSO on AeKir1-mediated Tl^+ flux, a one-way ANOVA was performed with a Tukey's multiple comparison test. Prism software (GraphPad Software) was used to generate CRC from Tl^+ flux. Half-inhibition concentration (IC50) values were calculated from fits using a four parameter logistic equation.

Each structure is given as a SMILES string. Like-named read-outs stand apart in the source and are kept apart here.

This is an account of results in publication PMC4222822, “Discovery and Characterization of a Potent and Selective Inhibitor of Aedes aegypti Inward Rectifier Potassium Channels” (PLoS ONE, 2014).

Sequence of AeKir1 (L0EQS9 entry or part of it): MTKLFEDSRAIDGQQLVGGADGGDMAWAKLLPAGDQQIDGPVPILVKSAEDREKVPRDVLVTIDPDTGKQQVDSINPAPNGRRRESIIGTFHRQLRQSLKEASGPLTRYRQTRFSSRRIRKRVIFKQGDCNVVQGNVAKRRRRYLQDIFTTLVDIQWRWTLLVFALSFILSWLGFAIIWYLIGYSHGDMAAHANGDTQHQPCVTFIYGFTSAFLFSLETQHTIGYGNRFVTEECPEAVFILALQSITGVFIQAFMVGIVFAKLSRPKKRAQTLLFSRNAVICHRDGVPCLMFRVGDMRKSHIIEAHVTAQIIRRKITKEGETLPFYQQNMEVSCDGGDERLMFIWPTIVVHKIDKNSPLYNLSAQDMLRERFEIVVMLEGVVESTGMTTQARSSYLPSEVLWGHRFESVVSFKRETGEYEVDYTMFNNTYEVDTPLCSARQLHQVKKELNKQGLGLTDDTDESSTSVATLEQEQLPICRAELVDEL

On to `CCC(=O)N1c2ccc(S(=O)(=O)Nc3cccc(OC)c3)cc2CC1C` (centres unmarked) [VU625, N-(3-methoxyphenyl)-2-methyl-1-propionylindoline-5-sulfonamide], for which the IC50 (11-point CRCs, 95% CI: 0.25–0.39 µM, read-out: IC50 (AeKir1, Tl+ flux)) stood at 320 nM; the IC50 (Fig. 2C, 95% CI: 254.4–390.2 nM, n = 4 independent experiments in triplicate, read-out: IC50 (AeKir1, Tl+ flux)) stood at 315 nM; the IC50 (Table 2, southern amide SAR, 11-point CRCs on AeKir1 in Tl+ flux, triplicate on two separate days, read-out: IC50±SEM) stood at 360 ± 20 nM; the IC50 (Table S3, left-hand sulfonamide SAR, 11-point CRCs on AeKir1 in Tl+ flux, triplicate on two separate days, read-out: IC50) is 856 nM. Moreover, the “Hill coefficient (nH)” value (Tl+ flux CRC, 95% CI: 0.8–1.2) is recorded as 0.98.
